Molecules are shown by their SMILES. “Also recorded” adds a separate entry of the source. Where two headings read alike, the source gives them in different places.

Here are results for two compounds from patent US9676749B2, “Compositions and methods for cancer detection and treatment” (Ohio State Innovation Foundation, priority 2009, dated 2017).

Test [1] addresses T1, purified PRMT5 (Homo sapiens, UniProt O14744). The text has this: (§1) Do achieve this, we performed enzyme inhibition assays using purified PRMT1 (a type I PRMT enzyme) and purified PRMT5 (a type II PRMT enzyme).
(§2) The next step required studies to explore whether CMP5 was capable of selectively inhibiting a type II PRMT enzyme. Type I PRMT enzymes are involved in transcriptional activation (asymmetric dimethylation at H4R3) and type II PRMT enzymes regulates transcriptional repression (symmetric dimethylation or S2Mc at H4R3). To achieve this goal, we performed enzyme inhibition assays using purified PRMT1 (type I PRMT enz) and purified PRMT5 (type II PRMT enz). Assays were performed utilizing 2 methods. The first utilized methods described previously by Zhao et at (Nat Struct Mol Biol. 2009), where 1 ug of H4 (Roche) was used as substrate and 2 uCi of S-adenosyl-L-methyl-^3H-methionine (^3H-SAM; Amersham) as the methyl donor in the presence or absence of 100-500 uM of CMP5 was incubated in HMTase buffer for 3 h at 37° C. Reaction mixtures were spotted on Whatman P-81 filter paper and washed to remove unincorporated [^3H]SAM. Methylated peptides were detected by scintillation counting. […] The second method utilized a methyltransferase activity assay to distinguish if differential inhibitory activity of CMP5 existed against the type I PRMT1 vs. the type II enzyme PRMT. The methyltransferase assay we used (Amsbio inc) utilized purified PRMT5 and PRMT1 enzyme preparations and tested for methylation of Histone H4 at arginine 3 (H4R3). SAM was incubated with a sample containing substrate H4 peptide, different concentrations of methyltransferase enzymes (PRMT5 or PRMT1), in presence or absence of CMP5 (100-500 uM) for one hour at 37° C. Fluorescently labeled SAM tracer was added followed by anti-SAM antibody that produces a change in fluorescent polarization that can be measured using a fluorescence reader.

In test [2] the target is purified PRMT1 (Homo sapiens, UniProt Q99873). Conditions: 100-500 uM, one hour at 37 C, 3 replicate experiments, p<0.0001.
Source text: as §1, §2

Test [3] has as its system symmetrical dimethylation (S2Me) of histone H4R3 in glioma cell line U1242. Briefly: Symmetric dimethyl H4R3 (S2Me-H4R3) content in glioma/astrocytoma cell lines by confocal microscopy and flow cytometry. The test is classed as cell-based, human. Conditions: for S2Me-H4R3 in astrocytoma cell lines, single agent or combined: CMP5 at 25 uM, HDAC inhibitor TSA; for H4R3 symmetric 2Me arginine methylation (S2Me): U1242, 8 hour incubation, confocal microscopy; for S2Me-H4R3 content, flow cytometric assay (FIG. 18): U1242 and U251, TSA (25 nM) and/or CMP5 (25 uM). Here is the method:
(§3) Confocal microscopy was used with mAbs specific for symmetrical dimethylation (S2Me) of histone H4R3. Positive control for loss of PRMT5 activity was provided by treatment of U1242 cells with a PRMT5-specific siRNA used in above experiments. (B) Cell proliferation was assessed in replicate cultures incubated in DMSO and compounds 1-8.
Initial Screening experiments were performed utilizing monoclonal antibodies specific for H4R3 symmetric dimethyl arginine and confocal microscopy generated images evaluating H4R3 methylation. Controls included scrambled and SiRNA specific for PRMT5 to verify knockdown and loss of H4R3 methylation. […] Findings similar to PRMT5-specific SiRNA treatment.
Recent work reported by Pal et al has shown that PRMT5 associates with SWI/SNF chromatin remodeling complexes along with other co-repressor molecules like HDAC2. […] We utilized a flow cytometric assay to evaluate symmetric dimethyl H4R3 (S2Me-H4R3) content and confocal microscopy to verify loss of methylation status.
(§4) The biochemical association of PRMT5 and HDAC2 with repressive chromatin remodeling complexes and cooperative enzyme kinetics has been previously described. […] As a control, we utilized a flow cytometric assay to evaluate symmetric dimethyl H4R3 (S2Me-H4R3, FIG. 18) content and confocal microscopy (not shown) to verify decrease of methylation status. We used Aimexin V/PI staining and flow cytometry to examine apoptosis (below). […] We are presently performing dose response experiments to examine whether this activity can be improved. In data not shown, we can achieve similar results with lower doses of CMP5 (10 uM). […] Inhibition PRMT5 with CMP5 and HDAC enzymes (at 10 fold lower concentrations) leads to synergistic induction of apoptosis of astrocytoma cell lines.
A general note: A flow cytometer gives signals particle by particle.

The subject of test [4] is U1242 cell line. Kind of test: Cell proliferation of GBM cells. The test is classed as cell-based, human. The settings on record: for cell proliferation / anti proliferative activity: GBM cells (U1242), vs DMSO control. The procedure: as §3
Preliminary enzymatic activity assays are currently underway and will be provided as an update during submission of supplementary materials.

Test [5] deals with astrocytoma cell lines (U1242 and U251). Briefly: Apoptosis of GBM/astrocytoma cell lines (Annexin V/PI, flow cytometry). The test is classed as cell-based, human. Conditions: single agents, not shown.
Source text: (B) inhibition of migration at 12 hrs after addition of siRNA to knock down PRMT5 vs. Scramble siRNA control.
as §4

Test [6] addresses human pure PRMT5 enzyme (Homo sapiens, UniProt O14744). Kind of test: In vitro methylation assay. The settings on record: FIG. 21 left. Type of test: biochemical. The procedure:
SAM was omitted for the substrate control, and human pure PRMT5 enzyme was omitted for blank control. (right) Jeko and Mino cells were treated by 10 uM of BLL36 for 24 hr, viability was evaluated by flow cytometry.

In test [7] the target is T1, purified PRMT5. The settings on record: 100-500 uM CMP5, H4 substrate, 3H-SAM, 3 h at 37 C; ±7.8%, p<0.001, data not shown. Here is the method:
as §2, with “The methyltransferase assay we used (Amsbio inc) utilized purified PRMT5 and PRMT1 enzyme preparations and tested for methylation of Histone H4 at arginine 3 (H4R3). SAM was incubated with a sample containing substrate H4 peptide, different concentrations of methyltransferase enzymes (PRMT5 or PRMT1), in presence or absence of CMP5 (100-500 uM) for one hour at 37° C.” left out

Where [8] appears, read: compound 5 at 20, 30, 40, 50 and 100 uM, 48 hours.

T1 sequence (O14744 whole entry): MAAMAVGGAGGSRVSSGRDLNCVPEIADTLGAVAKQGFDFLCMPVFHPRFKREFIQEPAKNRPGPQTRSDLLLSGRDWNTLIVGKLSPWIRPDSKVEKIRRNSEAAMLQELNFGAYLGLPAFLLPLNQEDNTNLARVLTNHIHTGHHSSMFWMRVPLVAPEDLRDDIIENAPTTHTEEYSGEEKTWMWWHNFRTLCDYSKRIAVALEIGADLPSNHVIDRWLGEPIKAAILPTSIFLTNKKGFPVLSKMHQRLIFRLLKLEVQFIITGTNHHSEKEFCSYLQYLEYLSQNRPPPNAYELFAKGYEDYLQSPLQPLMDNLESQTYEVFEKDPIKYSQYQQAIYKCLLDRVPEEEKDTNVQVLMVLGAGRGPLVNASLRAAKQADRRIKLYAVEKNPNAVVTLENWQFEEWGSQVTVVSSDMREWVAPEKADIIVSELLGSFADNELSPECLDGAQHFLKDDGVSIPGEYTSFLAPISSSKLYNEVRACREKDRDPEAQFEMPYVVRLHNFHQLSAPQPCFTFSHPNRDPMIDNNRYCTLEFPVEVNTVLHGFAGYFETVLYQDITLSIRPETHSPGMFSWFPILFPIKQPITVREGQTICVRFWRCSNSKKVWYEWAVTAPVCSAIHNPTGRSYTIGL
T1 sequence (Q9BQA1 whole entry partner): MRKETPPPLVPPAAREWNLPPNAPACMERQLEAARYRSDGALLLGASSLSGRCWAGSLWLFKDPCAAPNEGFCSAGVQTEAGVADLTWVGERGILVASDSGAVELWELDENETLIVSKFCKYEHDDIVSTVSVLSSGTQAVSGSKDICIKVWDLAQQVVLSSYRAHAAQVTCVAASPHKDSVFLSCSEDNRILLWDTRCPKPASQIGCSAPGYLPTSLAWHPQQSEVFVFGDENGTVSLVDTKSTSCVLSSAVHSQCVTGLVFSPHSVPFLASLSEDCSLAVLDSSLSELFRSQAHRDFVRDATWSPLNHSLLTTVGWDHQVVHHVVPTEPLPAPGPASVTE
Sequence of purified PRMT1 (Q99873 whole entry, species assumed): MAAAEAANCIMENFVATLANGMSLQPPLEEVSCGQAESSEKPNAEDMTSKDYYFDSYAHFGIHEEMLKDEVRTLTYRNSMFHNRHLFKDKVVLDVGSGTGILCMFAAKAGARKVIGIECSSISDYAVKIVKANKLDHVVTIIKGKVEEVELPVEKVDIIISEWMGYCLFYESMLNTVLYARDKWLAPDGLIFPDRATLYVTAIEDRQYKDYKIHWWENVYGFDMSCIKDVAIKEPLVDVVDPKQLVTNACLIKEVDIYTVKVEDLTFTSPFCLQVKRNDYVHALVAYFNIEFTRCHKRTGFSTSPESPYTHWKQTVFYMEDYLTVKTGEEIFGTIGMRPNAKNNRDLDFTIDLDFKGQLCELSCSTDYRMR
Sequence of human pure PRMT5 enzyme (O14744 whole entry): as the sequence (O14744 whole entry) above
Sequence of human pure PRMT5 enzyme (Q9BQA1 whole entry partner): as the sequence (Q9BQA1 whole entry partner) above

`CCn1c2ccccc2c2cc(CNCc3ccccn3)ccc21` [Compound 5]: the “inhibition of PRMT5 activity” value in test [1] (100-500 uM, one hour at 37 C, 3 replicate experiments, p<0.0001) is recorded as “selectively inhibiting PRMT5 activity”. Besides, the IC50 result in test [1] (lead compound of the initial screen) is given as “micromolar (uM) ranges”. The “inhibition of PRMT1 activity” value is reported as “not PRMT1 activity” in test [2] and “not PRMT1 enzymatic activity” in test [2] (listed as CMP5). Moreover, in test [3], the “S2Me-H4R3 in astrocytoma cell lines, single agent or combined” value is “unchanged”. Also, the “concentration of compound 5 giving loss of S2Me status of H4R3 on co-treatment with HDACi TSA” value in test [3] (GBM cell lines, co-treated with TSA) was 10 µM. Also, the “fold lower concentration of compound 5 for loss of S2Me H4R3 on co-treatment with TSA” value in test [3] (GBM cell lines, co-treated with TSA (75, 100 nM)) is > 10 fold. Besides, the results for the “H4R3 symmetric 2Me arginine methylation (S2Me)” value in test [3] and in test [3] (listed as CMP5) were “most efficacy; also recorded: best activity; also recorded: reduced; also recorded: capable of inhibiting H4R3 symmetric 2Me arginine methylation” and “loss of symmetric dimethyl-H4R3”, respectively. Besides, in test [3], the “S2Me-H4R3 content, flow cytometric assay (FIG. 18)” value is reported as “no change in S2Me-H4R3”. Besides, the “degree of H4R3 methylation, titration” value in test [3] (setting [8]) is “a dose response was seen”. In addition, in test [3] (original dose response experiments), the “concentration of CMP5 required for reduced methylation, single agent” value stood at 100 µM. The “cell proliferation / anti proliferative activity” value in test [4] is recorded as “most efficacy; also recorded: reduced cell proliferation”; in test [4] (listed as CMP5), “antiproliferative effect”. The “cellular proliferation (absolute cell numbers), titration” value in test [4] (setting [8]) is “a dose response was seen”. Further, in test [5], the “apoptosis of GBM cell lines” value is “promote apoptosis of GBM cell lines”. Besides, in test [6], the “concentration that decreased methyltransferase activity of PRMT5” value stood at 100 µM. Besides, the “reduction of methyltransferase activity” value in test [7] is 55%.
In the case of `CC(/C=C/C(=O)NO)=C\[C@@H](C)C(=O)c1ccc(N(C)C)cc1` [TSA, Trichostatin A, reference compound], in test [3], the “S2Me-H4R3 in astrocytoma cell lines, single agent or combined” value is recorded as “unchanged” and the “S2Me-H4R3 content, flow cytometric assay (FIG. 18)” value is reported as “no change in S2Me-H4R3”.
